Experimental data reported in PMC10716126, “Enzyme mechanistic studies of NMA1982, a protein tyrosine phosphatase and potential virulence factor in Neisseria meningitidis” (Scientific Reports, 2023).

Tests used:
NMA1982 [1] = target: T1, NMA1982 (Neisseria meningitidis, UniProt A1KVD0)
T1 construct: gene NMC1647

NMA1982 [2] = target: T1, NMA1982; remark: listed apart in the source

T1 sequence (A1KVD0 entry or part of it): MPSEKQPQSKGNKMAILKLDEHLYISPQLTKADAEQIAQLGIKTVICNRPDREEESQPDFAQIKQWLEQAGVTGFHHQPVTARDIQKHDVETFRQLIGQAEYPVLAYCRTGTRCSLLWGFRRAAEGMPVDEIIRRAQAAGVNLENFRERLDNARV

**Q.** For `[O]=[V]([OH])([OH])[OH]` [sodium orthovanadate], which IC50 (NMA1982 [1]) is on record?
**A.** The IC50 was 161 µM.

**Q.** Which Km (NMA1982 [2]) does the source give for `Cc1cc(=O)oc2c(F)c(OP(=O)(O)O)c(F)cc12` [DiFMUP] here?
**A.** The Km was 35 µM.
